Laboratory results published in ChEMBL document CHEMBL1201862, “PubChem BioAssay data set” (2004).
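Cells were grown in 96-well plates and exposed to each compound for 48 hours at five concentrations; endpoints were interpolated linearly between bracketing concentrations, or set to the highest concentration if not reached. GI50: concentration for 50% inhibition of growth.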 The source made the active and inactive calls. No stated cut-off is given here; in the data, active = GI50 up to about 1.1 µM and inactive = higher.

Columns and labels:
Assay in all cases: NCI anticancer screen, dose series, 48 h
HCT-116 = tested on: HCT-116
ACHN = tested on: ACHN
SN12C = tested on: SN12C
XF498 = tested on: XF498
EKVX = tested on: EKVX
HOP-92 = tested on: HOP-92
SNB-75 = tested on: SNB-75
UO-31 = tested on: UO-31
UACC-62 = tested on: UACC-62
SK-MEL-2 = tested on: SK-MEL-2
SR = tested on: SR
DMS-273 = tested on: DMS-273
SF-539 = tested on: SF-539
CAKI-1 = tested on: CAKI-1
SW-620 = tested on: SW-620
RXF 393 = tested on: RXF 393
IGROV-1 = tested on: IGROV-1
KM12 = tested on: KM12
DLD-1 = tested on: DLD-1
HL-60 = tested on: HL-60
HT-29 = tested on: HT-29
SNB-19 = tested on: SNB-19
A549 = tested on: A549
786-0 = tested on: 786-0
SK-OV-3 = tested on: SK-OV-3
NCI-H23 = tested on: NCI-H23
MOLT-4 = tested on: MOLT-4
HCC 2998 = tested on: HCC 2998
NCI-H522 = tested on: NCI-H522
RXF 631 = tested on: RXF 631
K562 = tested on: K562
OVCAR-8 = tested on: OVCAR-8
SF-268 = tested on: SF-268
M19-MEL = tested on: M19-MEL
UACC-257 = tested on: UACC-257
KM-20L2 = tested on: KM-20L2
A498 = tested on: A498
SF-295 = tested on: SF-295
Malme-3M = tested on: Malme-3M
OVCAR-3 = tested on: OVCAR-3
OVCAR-4 = tested on: OVCAR-4
U-251 = tested on: U-251
OVCAR-5 = tested on: OVCAR-5
SNB-78 = tested on: SNB-78
LXFL 529 = tested on: LXFL 529
HOP-62 = tested on: HOP-62
NCI-H226 = tested on: NCI-H226
CCRF-CEM = tested on: CCRF-CEM
M14 = tested on: M14
SK-MEL-28 = tested on: SK-MEL-28
TK-10 = tested on: TK-10
HCT-15 = tested on: HCT-15
DMS-114 = tested on: DMS-114
RPMI-8226 = tested on: RPMI-8226
SK-MEL-5 = tested on: SK-MEL-5
NCI-H460 = tested on: NCI-H460

COc1ccc2nc3ccccc3c(NCCN(CCCl)CCCl)c2c1
GI50 (HCT-116): 0.272 µM (active)
GI50 (ACHN): 0.336 µM (active)
GI50 (SN12C): 0.658 µM (active)
GI50 (XF498): 0.497 µM (active)
GI50 (EKVX): 2.35 µM (inactive)
GI50 (HOP-92): 0.476 µM (active)
GI50 (SNB-75): 1.25 µM (inactive)
GI50 (UO-31): 1.57 µM (inactive)
GI50 (UACC-62): 1 µM (active)
GI50 (SK-MEL-2): 1.81 µM (inactive)
GI50 (SR): 0.0321 µM (active)
GI50 (DMS-273): 0.333 µM (active)
GI50 (SF-539): 0.608 µM (active)
GI50 (CAKI-1): 0.251 µM (active)
GI50 (SW-620): 0.238 µM (active)
GI50 (RXF 393): 1.66 µM (inactive)
GI50 (IGROV-1): 1.3 µM (inactive)
GI50 (KM12): 1.34 µM (inactive)
GI50 (DLD-1): 0.738 µM (active)
GI50 (HL-60): 0.206 µM (active)
GI50 (HT-29): 0.543 µM (active)
GI50 (SNB-19): 0.656 µM (active)
GI50 (A549): 0.771 µM (active)
GI50 (786-0): 0.33 µM (active)
GI50 (SK-OV-3): 1.48 µM (inactive)
GI50 (NCI-H23): 0.156 µM (active)
GI50 (MOLT-4): 0.0592 µM (active)
GI50 (HCC 2998): 1.28 µM (inactive)
GI50 (NCI-H522): 0.348 µM (active)
GI50 (RXF 631): 0.455 µM (active)
GI50 (K562): 0.407 µM (active)
GI50 (OVCAR-8): 0.649 µM (active)
GI50 (SF-268): 0.783 µM (active)
GI50 (M19-MEL): 1.27 µM (inactive)
GI50 (UACC-257): 1.3 µM (inactive)
GI50 (KM-20L2): 0.474 µM (active)
GI50 (A498): 2.49 µM (inactive)
GI50 (SF-295): 0.614 µM (active)
GI50 (Malme-3M): 1.51 µM (inactive)
GI50 (OVCAR-3): 0.269 µM (active)
GI50 (OVCAR-4): 1.08 µM (active)
GI50 (U-251): 0.326 µM (active)
GI50 (OVCAR-5): 0.643 µM (active)
GI50 (SNB-78): 0.769 µM (active)
GI50 (LXFL 529): 0.466 µM (active)
GI50 (HOP-62): 0.555 µM (active)
GI50 (NCI-H226): 1 µM (active)
GI50 (CCRF-CEM): 0.144 µM (active)
GI50 (M14): 1.03 µM (active)
GI50 (SK-MEL-28): 2.36 µM (inactive)
GI50 (TK-10): 1.76 µM (inactive)

Cc1ccc(Oc2ccc([N+](=O)[O-])cc2[N+](=O)[O-])c(C)c1
GI50 (HCT-116): 30.3 µM (inactive)
GI50 (ACHN): 47.6 µM (inactive)
GI50 (SN12C): 41.2 µM (inactive)
GI50 (HCT-15): 35.1 µM
GI50 (XF498): 42.1 µM (inactive)
GI50 (EKVX): 88.7 µM (inactive)
GI50 (DMS-114): 26.2 µM (inactive)
GI50 (SNB-75): 37.5 µM (inactive)
GI50 (UO-31): 40.5 µM (inactive)
GI50 (UACC-62): 45 µM (inactive)
GI50 (SK-MEL-2): 56.9 µM (inactive)
GI50 (DMS-273): 28.1 µM (inactive)
GI50 (SF-539): 58.7 µM (inactive)
GI50 (CAKI-1): 29.8 µM (inactive)
GI50 (SW-620): 47.1 µM (inactive)
GI50 (RPMI-8226): 26.5 µM (inactive)
GI50 (RXF 393): 20.5 µM (inactive)
GI50 (IGROV-1): > 100 µM (inactive)
GI50 (KM12): > 10 µM (inactive)
GI50 (DLD-1): 56.4 µM (inactive)
GI50 (HL-60): 22.9 µM (inactive)
GI50 (HT-29): 25.6 µM (inactive)
GI50 (A549): 34.1 µM (inactive)
GI50 (786-0): 71.8 µM (inactive)
GI50 (SK-MEL-5): 21.1 µM (inactive)
GI50 (SK-OV-3): > 100 µM (inactive)
GI50 (NCI-H23): 28.7 µM (inactive)
GI50 (MOLT-4): 21.5 µM (inactive)
GI50 (HCC 2998): > 100 µM (inactive)
GI50 (RXF 631): 21.4 µM (inactive)
GI50 (K562): 30.5 µM (inactive)
GI50 (OVCAR-8): 59.2 µM (inactive)
GI50 (M19-MEL): 51.3 µM (inactive)
GI50 (UACC-257): 26.1 µM (inactive)
GI50 (KM-20L2): > 10 µM (inactive)
GI50 (A498): 37.9 µM (inactive)
GI50 (SF-295): 49.3 µM (inactive)
GI50 (Malme-3M): 75 µM (inactive)
GI50 (OVCAR-3): 35.2 µM (inactive)
GI50 (OVCAR-4): 32.2 µM (inactive)
GI50 (U-251): 34.8 µM (inactive)
GI50 (OVCAR-5): 82.8 µM (inactive)
GI50 (SNB-78): 61.4 µM (inactive)
GI50 (LXFL 529): 41 µM (inactive)
GI50 (HOP-62): 49.2 µM (inactive)
GI50 (NCI-H226): 44.9 µM (inactive)
GI50 (CCRF-CEM): 30.1 µM (inactive)
GI50 (M14): 48.6 µM (inactive)
GI50 (NCI-H460): 37.3 µM (inactive)
GI50 (SK-MEL-28): 67.8 µM (inactive)
GI50 (TK-10): 96.4 µM (inactive)
